Reference: patent US20260183356A1, “NOVEL COMBINATION BASED ON RIFAXIMIN AND PROBIOTIC YEASTS, COMPOSITIONS CONTAINING IT AND THEIR USE IN THERAPY” (NYUMA PHARMA SRL, priority 2022, published 2026)

Key:
[1] = tested on: Kluyveromyces marxianus B099; experiment: Microdilution test, susceptibility of Kluyveromyces marxianus to the antibiotic (growth abatement, OD600); format: cell-based
Procedure: (§1) The test aims to assess the in vitro susceptibility of the yeast Kluyveromyces marxianus to the antibiotic rifaximin. The test is performed by assaying 8 scalar dilutions of rifaximin in liquid culture medium (microdilution). Bacterial strains are tested in parallel as controls. Rifaximin is a synthetic molecule derived from rifamycin. The powder is characterized by poor solubility in water and tendency to self-aggregate in the liquid phase. A preliminary step is then performed to set the solubility conditions of rifaximin at the highest concentration used in the test (0.5 mg/ml). The following strains were used • Kluyveromyces marxianus B099 • Bifidobacterium longum […] • Escherichia coli ATCC 8739 The Escherichia coli bacterial strain was revitalized from a reference stock suspension stored at -80° C. After thawing, working cultures were set up by growing the strain in suitable plate medium under the optimal growth conditions. The other strains were obtained after plating on agarized culture medium of the specific matrices and subsequent isolation of pure colonies. In Table 1 the strains and the growth and inoculation conditions are set forth. [table] In the microdilution test, broth-cultures of the test microorganisms are set up in triplicates in the presence of 8 different concentrations of rifaximin, which are selected in agreement with the client, and 1 concentration of rifamycin corresponding to the highest concentration selected for rifaximin. 100 μl of a solution, 2 times more concentrated (2×) than the desired concentration, and 100 μl of the microbial suspension at a titer given in Table 2.2.1, were added to each well of the 96-wells plates. The 8 concentrations of rifaximin are produced from the 50 mg/ml solution in DMSO in TSB and in parallel in SDB. The final test concentrations are as follows: 0.5 mg/ml-0.25 mg/ml-0.125 mg/ml-0.063 mg/ml-0.031 mg/ml-0.015 mg/ml-0.0078 mg/ml-0.0039 mg/ml. Following the absorbance measurement on the spectrophotometer, the mean of the data recorded for each concentration and the mean of the data from the controls in DMSO or sterile water are calculated. To estimate the microbial growth and determine MIC from the mean data obtained (in the test and controls), the blank data are subtracted and then the control data and the test data are compared with each other to assess any growth or growth inhibition of each strain tested. The growth inhibition is calculated as a percentage by the following formula: [formula] • wherein • A: Mean OD of control • B: Mean OD of the sample at the concentration tested • MIC is considered the lowest concentration of product that can give at least 90% growth inhibition. A solution of rifamycin is prepared, at the 50 mg/ml concentration in sterile water, which is then diluted in tryptic soy broth (TSB) and in parallel in Sabouraud dextrose broth (SDB) until the 0.5 mg/ml concentration used in the test is obtained. The plates are incubated at the optimal temperatures and growth conditions of the various strains tested as described in Example 5. After the days of incubation have passed, the absorbance at 600 nm (OD600) is measured by spectrophotometer. The mean values after subtracting the blank are used to estimate microbial growth and determine MIC.

[2] = tested on: Escherichia coli ATCC 8739; experiment: Microdilution test, control bacterial strain Escherichia coli (growth abatement, OD600); format: cell-based
Procedure: as §1

[3] = tested on: Bifidobacterium longum W11; experiment: Microdilution test, control bacterial strain Bifidobacterium longum (growth abatement, OD600); format: cell-based; details: for Abatement of strain growth: Bifidobacterium longum W11
Procedure: as §1

[4] = Preliminary solubilization test in DMSO; format: physicochemical; details: starting stock solution
Procedure: The test aims to assess the in vitro susceptibility of the yeast Kluyveromyces marxianus to the antibiotic rifaximin. The test is performed by assaying 8 scalar dilutions of rifaximin in liquid culture medium (microdilution). Bacterial strains are tested in parallel as controls. Rifaximin is a synthetic molecule derived from rifamycin. The powder is characterized by poor solubility in water and tendency to self-aggregate in the liquid phase. A preliminary step is then performed to set the solubility conditions of rifaximin at the highest concentration used in the test (0.5 mg/ml). The exploratory step is performed to set the solubilization conditions of rifaximin and the culture conditions of the microbial strains. Given the poor solubility of rifaximin powder in water and the tendency for self-aggregation in the liquid phase, a solubilization test in DMSO (dimethyl sulfoxide) is performed. […] The first concentration used in the test and the subsequent dilutions (set up in Tryptic soy broth-TSB or Sabouraud dextrose broth-SDB, base-2 serial dilutions) were defined in agreement with the client, based on literature data. The strains were expanded first in liquid medium and then in agarized medium, as described in Table 2.2.1, obtaining growth results that confirmed the use of these media and conditions for the microdilution test as well.

[5] = rifamycin 0.5 mg/ml (stock in sterile water)

**Q.** With `CO[C@H]1/C=C/O[C@@]2(C)Oc3c(C)c(O)c4c(O)c(cc(O)c4c3C2=O)NC(=O)/C(C)=C\C=C\[C@H](C)[C@H](O)[C@@H](C)[C@@H](O)[C@@H](C)[C@H](OC(C)=O)[C@@H]1C` [rifamycin] as the molecule, how does the “Growth inhibition, conclusion in words” value [1] read?
**A.** inhibits the growth

**Q.** What about the “Abatement of strain growth” value [1, 5] of the same molecule?
**A.** 88.9%

**Q.** What about the “Growth inhibition, conclusion in words” value [2] of the same molecule?
**A.** inhibits the growth

**Q.** What about the “Abatement of strain growth” value [2, 5] of the same molecule?
**A.** 79.7%

**Q.** What about the “Growth inhibition, conclusion in words” value ([3]; Bifidobacterium longum) of the same molecule?
**A.** inhibits the growth

**Q.** What about the “Abatement of strain growth” value [3, 5] of the same molecule?
**A.** 87.5%

**Q.** With `CO[C@H]1/C=C/O[C@@]2(C)Oc3c(C)c(O)c4c(O)c(c5c(nc6cc(C)ccn65)c4c3C2=O)NC(=O)/C(C)=C\C=C\[C@H](C)[C@H](O)[C@@H](C)[C@@H](O)[C@@H](C)[C@H](OC(C)=O)[C@@H]1C` [rifaximin] as the molecule, how does the “Growth inhibition, conclusion in words” value [1] read?
**A.** does not inhibit the growth

**Q.** And the “Abatement of strain growth” value ([1]; rifaximin 0.0039 mg/ml)?
**A.** 1.5%

**Q.** What about the “Abatement of strain growth” value ([1]; rifaximin 0.0078 mg/ml) of the same molecule?
**A.** −1.7%

**Q.** What about the “Abatement of strain growth” value ([1]; rifaximin 0.015 mg/ml) of the same molecule?
**A.** −3.3%

**Q.** And the “Abatement of strain growth” value ([1]; rifaximin 0.031 mg/ml)?
**A.** −2.1%

**Q.** And the “Abatement of strain growth” value ([1]; rifaximin 0.063 mg/ml)?
**A.** −2.6%

**Q.** What about the “Abatement of strain growth” value ([1]; rifaximin 0.125 mg/ml) of the same molecule?
**A.** −3.5%

**Q.** What about the “Abatement of strain growth” value ([1]; rifaximin 0.25 mg/ml) of the same molecule?
**A.** −1.2%

**Q.** And the “Abatement of strain growth” value ([1]; rifaximin 0.5 mg/ml)?
**A.** −4.7%

**Q.** And the “Growth inhibition, conclusion in words” value [2]?
**A.** inhibits the growth

**Q.** What about the “Growth inhibition” value ([2]; at ≥0.031 mg/ml concentrations) of the same molecule?
**A.** ~99%

**Q.** What about the “Abatement of strain growth” value ([2]; rifaximin 0.0039 mg/ml) of the same molecule?
**A.** 45.7%

**Q.** And the “Abatement of strain growth” value ([2]; rifaximin 0.0078 mg/ml)?
**A.** 54.9%

**Q.** What about the “Abatement of strain growth” value ([2]; rifaximin 0.015 mg/ml) of the same molecule?
**A.** 94.5%

**Q.** What about the “Abatement of strain growth” value ([2]; rifaximin 0.031 mg/ml) of the same molecule?
**A.** >99.9%

**Q.** And the “Abatement of strain growth” value ([2]; rifaximin 0.063 mg/ml)?
**A.** 99.6%

**Q.** What about the “Abatement of strain growth” value ([2]; rifaximin 0.125 mg/ml) of the same molecule?
**A.** >99.9%

**Q.** And the “Abatement of strain growth” value ([2]; rifaximin 0.25 mg/ml)?
**A.** 98.5%

**Q.** And the “Abatement of strain growth” value ([2]; rifaximin 0.5 mg/ml)?
**A.** 98.1%

**Q.** What about the “Growth inhibition, conclusion in words” value ([3]; Bifidobacterium longum) of the same molecule?
**A.** inhibits the growth

**Q.** And the “Growth inhibition” value ([3]; Bifidobacterium longum, virtually all concentrations except 0.0039 mg/ml)?
**A.** > 99.9%

**Q.** What about the “Abatement of strain growth” value ([3]; rifaximin 0.0039 mg/ml) of the same molecule?
**A.** 45.5%

**Q.** What about the “Abatement of strain growth” value ([3]; rifaximin 0.0078 mg/ml) of the same molecule?
**A.** >99.9%

**Q.** And the “Abatement of strain growth” value ([3]; rifaximin 0.015 mg/ml)?
**A.** >99.9%

**Q.** What about the “Abatement of strain growth” value ([3]; rifaximin 0.031 mg/ml) of the same molecule?
**A.** >99.9%

**Q.** And the “Abatement of strain growth” value ([3]; rifaximin 0.063 mg/ml)?
**A.** >99.9%

**Q.** And the “Abatement of strain growth” value ([3]; rifaximin 0.125 mg/ml)?
**A.** >99.9%

**Q.** And the “Abatement of strain growth” value ([3]; rifaximin 0.25 mg/ml)?
**A.** 98.7%

**Q.** And the “Abatement of strain growth” value ([3]; rifaximin 0.5 mg/ml)?
**A.** >99.9%

**Q.** What about the “Highest concentration in DMSO with no visible precipitates and clear” value [4] of the same molecule?
**A.** 50 mg/mL
